{"source": "PubChem BioAssay AID977613", "about": "(Broad Institute, 2014)", "note": "Active and inactive are the calls of the source. How the calls were made is not given here."}
{"tested_on": "Broad 7084-01 inhibitor HTS, set 2", "test": "single-concentration hits, screen 7084 set 2 (AID 977613);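 further: host cells are infected with parasite promastigotes that become internalized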"}
{"smiles": "CN1C[C@@H]2[C@H](c3ccccc31)[C@@H](CO)N2C(=O)Nc1cccc(F)c1", "active concentration": "> 10 µM (inactive)"}
{"smiles": "COC(=O)[C@@H]1[C@@H](CO)[C@@H]2Cn3c(cccc3=O)[C@@H]2N1CC1CCOCC1", "active concentration": "> 10 µM (inactive)"}
{"smiles": "O=C(C1CCOCC1)N1CC2(C1)[C@H](c1ccccc1)[C@H](CO)N2CCC(F)(F)F", "active concentration": "> 10 µM (inactive)"}
{"smiles": "Cc1cccc(S(=O)(=O)N2CC[C@H]3[C@@H](CO)N(C)c4ccc(-c5ccccc5F)cc4[C@H]32)c1", "active concentration": "> 10 µM (inactive)"}
{"smiles": "CCCC#Cc1ccc([C@@H]2[C@@H](CO)N3CCCCN(CCC)C[C@@H]23)cc1", "active concentration": "> 10 µM (inactive)"}
{"smiles": "COc1ccc2c3c([nH]c2c1)[C@@H](CO)N(S(C)(=O)=O)CC31CN(CC2CCOCC2)C1", "active concentration": "> 10 µM (inactive)"}
{"smiles": "COCCNC(=O)[C@@H]1[C@@H](CO)[C@@H]2Cn3c(cccc3=O)[C@H]1N2S(=O)(=O)c1ccccc1C", "active concentration": "> 10 µM (inactive)"}
{"smiles": "CN1C(=O)c2cc(NS(C)(=O)=O)ccc2OC[C@H]2O[C@@H](CC(=O)NC3CCCCC3)CC[C@@H]21", "active concentration": "> 10 µM (inactive)"}
{"smiles": "COc1ccc2c3c(n(C)c2c1)[C@@H](CO)N(CC1CCOCC1)CC31CN(Cc2nccs2)C1", "active concentration": "> 10 µM (inactive)"}
{"smiles": "CN(C)CC(=O)N1CC2(C1)[C@@H](c1ccccc1)[C@@H](CO)N2C(=O)C1CC1", "active concentration": "> 10 µM (inactive)"}
{"smiles": "O=C(Nc1ccc(F)cc1)N1CC(=O)N2[C@H](CO)[C@H](c3ccc(C#Cc4cccnc4)cc3)[C@H]2C1", "active concentration": "> 10 µM (inactive)"}
{"smiles": "O=C(C[C@@H]1CC[C@H]2[C@@H](COC[C@H](O)CN2Cc2nccs2)O1)NCc1ccccc1", "active concentration": "> 10 µM (inactive)"}
{"smiles": "O=C(NC1Cc2ccccc2C1)[C@H]1[C@H](CO)[C@H]2Cn3c(cccc3=O)[C@@H]1N2C(=O)CC1CC1", "active concentration": "> 10 µM (inactive)"}
{"smiles": "O=C(C[C@H]1CC[C@@H]2[C@H](COC[C@H](O)CN2C(=O)Cc2ccccc2)O1)NC1CCCC1", "active concentration": "> 10 µM (inactive)"}
{"smiles": "O=C(NC1CCCCC1)[C@@H]1N[C@@H]2c3ccc(-c4cccc(F)c4)c(=O)n3C[C@@H]2[C@H]1CO", "active concentration": "> 10 µM (inactive)"}
{"smiles": "CN1c2ccc(C#Cc3cccnc3)cc2[C@H]2[C@H](CCN2S(=O)(=O)c2ccccc2F)[C@@H]1CO", "active concentration": "> 10 µM (inactive)"}
{"smiles": "CN1CCN(C(=O)C[C@H]2CC[C@@H]3[C@H](COC[C@H](O)CN3C(=O)C3CC3)O2)CC1", "active concentration": "> 10 µM (inactive)"}
{"smiles": "O=C(C[C@@H]1CC[C@H]2[C@@H](COC[C@@H](O)CN2S(=O)(=O)c2cccc(Cl)c2)O1)Nc1ccc(-c2ccccc2)cc1", "active concentration": "> 10 µM (inactive)"}
{"smiles": "CN1c2ccc(Br)cc2[C@@H]2[C@@H](CCN2S(=O)(=O)c2cccc(F)c2)[C@@H]1CO", "active concentration": "> 10 µM (inactive)"}
{"smiles": "COC(=O)C[C@H]1CC[C@@H]2[C@H](COc3ccc(NC(=O)c4cccc(Cl)c4)cc3C(=O)N2C)O1", "active concentration": "> 10 µM (inactive)"}
{"smiles": "CCS(=O)(=O)N1[C@H](CO)[C@@H](c2ccccc2)C12CN(C(=O)C1CCCCC1)C2", "active concentration": "> 10 µM (inactive)"}
{"smiles": "CN1C[C@H](O)COC[C@H]2O[C@H](CC(=O)NC3CCCC3)CC[C@@H]21", "active concentration": "> 10 µM (inactive)"}
{"smiles": "O=C(O)[C@H]1[C@H](CO)[C@H]2Cn3c(ccc(-c4cncnc4)c3=O)[C@H]2N1C(=O)C1CCCCC1", "active concentration": "> 10 µM (inactive)"}
{"smiles": "COCC(=O)N1[C@H](C#N)[C@H](c2ccccc2-c2ccc(C)cc2)[C@@H]1CO", "active concentration": "> 10 µM (inactive)"}
{"smiles": "Cc1cccc(S(=O)(=O)N2C[C@@H](O)COC[C@H]3O[C@@H](CC(=O)Nc4ccccc4)CC[C@@H]32)c1", "active concentration": "> 10 µM (inactive)"}
{"smiles": "CCCC#Cc1ccc([C@@H]2[C@H]3CN(S(=O)(=O)c4ccccc4C)CC(=O)N3[C@H]2CO)cc1", "active concentration": "> 10 µM (inactive)"}
{"smiles": "C/C=C/c1ccc([C@@H]2[C@@H](CO)N3C(=O)CN(S(=O)(=O)c4ccccc4)C[C@H]23)cc1", "active concentration": "> 10 µM (inactive)"}
{"smiles": "COc1ccc(NC(=O)N2CC(=O)N3[C@H](CO)[C@H](c4ccc(Br)cc4)[C@H]3C2)cc1", "active concentration": "> 10 µM (inactive)"}
{"smiles": "CCCC#Cc1ccc([C@@H]2[C@H]3CN(C(=O)CN4CCOCC4)CC(=O)N3[C@H]2CO)cc1", "active concentration": "> 10 µM (inactive)"}
{"smiles": "CCCN1[C@H](C(=O)Nc2nccs2)[C@@H](CO)[C@@H]2Cn3c(ccc(-c4ccccc4OC)c3=O)[C@@H]21", "active concentration": "> 10 µM (inactive)"}
{"smiles": "O=C(C[C@H]1CC[C@H]2[C@@H](COC[C@H](O)CN2C(=O)c2cccnc2)O1)NCc1ccccc1", "active concentration": "> 10 µM (inactive)"}
{"smiles": "CC(C)CC#Cc1ccc([C@H]2[C@H](CO)N3C(=O)CN(C(=O)c4ccccn4)C[C@@H]23)cc1", "active concentration": "> 10 µM (inactive)"}
{"smiles": "CN1C(=O)c2cc(NC(=O)c3cnccn3)ccc2OC[C@@H]2O[C@H](CC(=O)NCC3CCCCC3)CC[C@H]21", "active concentration": "> 10 µM (inactive)"}
{"smiles": "O=C(C[C@H]1CC[C@@H]2[C@H](COC[C@@H](O)CN2C(=O)C2CC2)O1)NCc1ccncc1", "active concentration": "> 10 µM (inactive)"}
{"smiles": "CCCNC(=O)N1[C@H](CO)[C@H](c2ccccc2-c2cccc(OC)c2)[C@@H]1C#N", "active concentration": "> 10 µM (inactive)"}
{"smiles": "N#C[C@@H]1[C@H](c2ccccc2-c2ccccc2)[C@H](CO)N1C(=O)Cc1ccncc1", "active concentration": "> 10 µM (inactive)"}
{"smiles": "OC[C@@H]1[C@@H]2c3ccccc3NC[C@@H]2N1Cc1cccnc1", "active concentration": "> 10 µM (inactive)"}
{"smiles": "COc1ccc2c3c([nH]c2c1)[C@@H](CO)N(S(=O)(=O)c1cn(C)cn1)CC31CCN(CC2CCCCC2)CC1", "active concentration": "> 10 µM (inactive)"}
{"smiles": "COC(=O)C[C@@H]1CC[C@@H]2[C@H](COc3ccc(NS(=O)(=O)c4ccccc4Cl)cc3C(=O)N2C)O1", "active concentration": "> 10 µM (inactive)"}
{"smiles": "O=C(C[C@@H]1CC[C@@H]2[C@H](COC[C@@H](O)CN2Cc2ccccc2)O1)NCCc1ccccc1", "active concentration": "> 10 µM (inactive)"}
{"smiles": "O=C(C[C@@H]1CC[C@@H]2[C@H](COC[C@@H](O)CN2C(=O)Cc2ccccc2)O1)NC1CCCC1", "active concentration": "> 10 µM (inactive)"}
{"smiles": "CCCNC(=O)N1CC2(CCN(C(=O)c3cccc(F)c3)CC2)c2c([nH]c3cc(OC)ccc23)[C@H]1CO", "active concentration": "> 10 µM (inactive)"}
{"smiles": "CCN1[C@@H]2c3ccc(-c4ccccc4F)c(=O)n3C[C@H]1[C@H](CO)[C@H]2C(=O)NCc1ccc(F)cc1", "active concentration": "> 10 µM (inactive)"}
{"smiles": "CN1C(=O)c2cc(NC(=O)Cc3cccs3)ccc2OC[C@@H]2O[C@@H](CC(=O)N[C@H]3CCN(Cc4ccccc4)C3)CC[C@H]21", "active concentration": "> 10 µM (inactive)"}
{"smiles": "C[C@H](O)C#Cc1ccc([C@@H]2[C@@H](CO)N3CCCCN(C(=O)c4ccc5c(c4)OCO5)C[C@H]23)cc1", "active concentration": "> 10 µM (inactive)"}
{"smiles": "CN1[C@@H]2CN(C(=O)C3CCCCC3)c3ccccc3[C@@H]2[C@@H]1CO", "active concentration": "> 10 µM (inactive)"}
{"smiles": "O=C(C1CC1)N1CC2(C1)[C@H](c1ccccc1)[C@@H](CO)N2Cc1nccs1", "active concentration": "> 10 µM (inactive)"}
{"smiles": "CC(=O)N1[C@@H]2c3ccc(-c4cccc(F)c4)c(=O)n3C[C@@H]2[C@@H](CO)[C@@H]1C(=O)NCCCN(C)C", "active concentration": "> 10 µM (inactive)"}
{"smiles": "O=C(C[C@@H]1CC[C@H]2[C@@H](COC[C@@H](O)CN2C(=O)c2ccc(F)cc2)O1)NCc1cccc(F)c1", "active concentration": "> 10 µM (inactive)"}
{"smiles": "COc1ccc2c3c([nH]c2c1)[C@H](CO)N(CC1CC1)CC31CN(C(=O)c2ccc(F)cc2)C1", "active concentration": "> 10 µM (inactive)"}
{"smiles": "COC(=O)[C@@H]1[C@@H](CO)[C@@H]2Cn3c(cccc3=O)[C@H]1N2Cc1nccs1", "active concentration": "> 10 µM (inactive)"}
{"smiles": "O=C(C1CCCCC1)N1CC(=O)N2[C@H](CO)[C@@H](c3ccc(-c4ccccc4F)cc3)[C@@H]2C1", "active concentration": "> 10 µM (inactive)"}
{"smiles": "COCC(=O)N1[C@H](CO)[C@@H](c2ccccc2-c2ccccc2F)[C@@H]1C#N", "active concentration": "< 10 µM"}
{"smiles": "O=C(C[C@@H]1CC[C@@H]2[C@H](COC[C@H](O)CN2C(=O)Nc2ccc(Cl)cc2)O1)NCC1CC1", "active concentration": "> 10 µM (inactive)"}
{"smiles": "CN1[C@H](CO)[C@H]2c3ccccc3N(C(=O)Nc3ccccc3F)C[C@H]21", "active concentration": "> 10 µM (inactive)"}
{"smiles": "O=C(Nc1ccccc1)N1CC(=O)N2[C@H](C1)[C@@H](c1ccc(C#CC3CCCCC3)cc1)[C@@H]2CO", "active concentration": "> 10 µM (inactive)"}
{"smiles": "O=C(C[C@H]1CC[C@@H]2[C@H](COC[C@H](O)CN2C(=O)C2CC2)O1)NCc1ccncc1", "active concentration": "> 10 µM (inactive)"}
{"smiles": "O=S(=O)(c1ccc(F)cc1)N1CCCCN2[C@H](C1)[C@@H](c1ccc(-c3cncnc3)cc1)[C@@H]2CO", "active concentration": "> 10 µM (inactive)"}
{"smiles": "O=C(O)[C@H]1[C@H](CO)[C@H]2Cn3c(ccc(C4=CCCCC4)c3=O)[C@@H]1N2C(=O)Cc1ccccn1", "active concentration": "> 10 µM (inactive)"}
{"smiles": "N#C[C@H]1[C@H](c2ccccc2-c2ccccc2F)[C@H](CO)N1C(=O)C1CCC1", "active concentration": "> 10 µM (inactive)"}
{"smiles": "CCS(=O)(=O)Nc1ccc2c(c1)C(=O)N(C)[C@H]1CC[C@H](CC(=O)N[C@@H]3CCN(Cc4ccccc4)C3)O[C@H]1CO2", "active concentration": "> 10 µM (inactive)"}
{"smiles": "O=C(C[C@@H]1CC[C@@H]2[C@H](COC[C@@H](O)CN2C(=O)C2CC2)O1)NCc1ccncc1", "active concentration": "> 10 µM (inactive)"}
{"smiles": "O=C(Nc1cc(F)ccc1F)N1CCCCN2[C@@H](CO)[C@@H](c3ccc(C4=CCCCC4)cc3)[C@@H]2C1", "active concentration": "> 10 µM (inactive)"}
{"smiles": "O=C(C[C@H]1CC[C@H]2[C@@H](COC[C@H](O)CN2CCC(F)(F)F)O1)NCC1CC1", "active concentration": "> 10 µM (inactive)"}
{"smiles": "O=C1CN(S(=O)(=O)Cc2ccccc2)C[C@@H]2[C@@H](c3ccc(C#Cc4ccccc4)cc3)[C@@H](CO)N12", "active concentration": "> 10 µM (inactive)"}
{"smiles": "O=S(=O)(c1cccs1)N1CCCCN2[C@H](C1)[C@H](c1ccc(/C=C/c3ccccc3)cc1)[C@@H]2CO", "active concentration": "> 10 µM (inactive)"}
{"smiles": "CN1c2ccc(-c3ccccc3F)cc2[C@@H]2[C@@H](CCN2C(=O)Cc2ccccn2)[C@@H]1CO", "active concentration": "> 10 µM (inactive)"}
{"smiles": "CN1C(=O)c2cc(NC(=O)Cc3cccs3)ccc2OC[C@H]2O[C@H](CC(=O)N[C@@H]3CCN(Cc4ccccc4)C3)CC[C@H]21", "active concentration": "> 10 µM (inactive)"}
{"smiles": "CN1C[C@H]2[C@@H](c3ccccc31)[C@@H](CO)N2C(=O)Nc1cccc(F)c1", "active concentration": "> 10 µM (inactive)"}
{"smiles": "COC(=O)[C@H]1[C@H](CO)[C@H]2Cn3c(ccc(-c4ccccc4F)c3=O)[C@@H]1N2", "active concentration": "> 10 µM (inactive)"}
